Results taken from PMC5075677 (Medical Gas Research, 2016).
Positions count from the first letter of the chain named. Structures can show the parent of a compound that is named as a salt.

Tests used:
heme oxygenase-2 [1] = biological target: T1, heme oxygenase-2 (Homo sapiens, UniProt P30519, C265A/C282A); assay type: biochemical
T1 sequence (P30519 1-316 C265A/C282A): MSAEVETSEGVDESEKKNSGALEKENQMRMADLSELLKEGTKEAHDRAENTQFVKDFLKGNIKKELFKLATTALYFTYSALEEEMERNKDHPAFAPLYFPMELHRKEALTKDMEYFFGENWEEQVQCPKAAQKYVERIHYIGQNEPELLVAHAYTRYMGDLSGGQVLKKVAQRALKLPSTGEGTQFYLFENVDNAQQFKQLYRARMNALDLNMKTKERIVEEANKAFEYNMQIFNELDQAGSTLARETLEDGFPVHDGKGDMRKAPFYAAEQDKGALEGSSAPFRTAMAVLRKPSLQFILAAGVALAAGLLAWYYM

heme oxygenase-2 [2] = biological target: T2, heme oxygenase-2 (Homo sapiens, UniProt P30519); assay type: biochemical
T2 sequence (P30519 1-316): T1 sequence (P30519 1-316 C265A/C282A) with A265C, A282C

IC50 (heme oxygenase-2 [1]): 29 µM
IC50 (heme oxygenase-2 [2]): 20 µM
Structure (SMILES): c1ccc(CCn2c(CN3CCCC3)nc3ccccc32)cc1 [QC-2350, 1-(2-phenylethyl)-2-(pyrrolidin-1-ylmethyl)-1H-benzimidazole dihydrochloride]
